T1: motor domain of the human kinesin spindle protein KSP/Eg5 (Homo sapiens, UniProt P52732)
T1 construct: The motor domain of the human kinesin spindle protein KSP/Eg5; purchased tebu-bio/Cytoskeleton Inc 027EG01-XL
T1 sequence (P52732 18-359 limits assumed): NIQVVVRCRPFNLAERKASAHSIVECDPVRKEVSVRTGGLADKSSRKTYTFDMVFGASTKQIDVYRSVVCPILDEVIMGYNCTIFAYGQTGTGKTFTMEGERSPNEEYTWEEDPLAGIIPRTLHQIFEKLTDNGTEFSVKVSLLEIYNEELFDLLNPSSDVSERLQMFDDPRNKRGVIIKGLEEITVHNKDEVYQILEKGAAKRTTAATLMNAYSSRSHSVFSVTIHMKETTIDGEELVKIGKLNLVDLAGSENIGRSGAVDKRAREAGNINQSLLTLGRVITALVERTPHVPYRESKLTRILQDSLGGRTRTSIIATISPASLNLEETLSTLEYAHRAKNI

T2: human B7H3 (RnDSystems, 2318-B3-050/CF) (human, UniProt Q5ZPR3 29-461)
T2 construct: Bought antigen, detected with an anti-His HRP antibody, so a His tag is implied
T2 sequence (looked up): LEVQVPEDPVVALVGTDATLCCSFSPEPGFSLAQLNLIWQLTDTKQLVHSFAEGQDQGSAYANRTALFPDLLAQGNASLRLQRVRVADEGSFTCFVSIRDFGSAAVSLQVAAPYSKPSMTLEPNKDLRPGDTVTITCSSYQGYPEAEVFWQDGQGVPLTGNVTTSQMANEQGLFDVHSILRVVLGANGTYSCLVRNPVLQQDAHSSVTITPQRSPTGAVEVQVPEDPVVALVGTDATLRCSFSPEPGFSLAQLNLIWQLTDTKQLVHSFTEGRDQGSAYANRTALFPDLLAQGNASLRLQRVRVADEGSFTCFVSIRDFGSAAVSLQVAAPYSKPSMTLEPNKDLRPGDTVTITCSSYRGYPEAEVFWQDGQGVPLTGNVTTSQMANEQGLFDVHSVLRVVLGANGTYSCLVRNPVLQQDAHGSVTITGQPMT


Experiments:
KPL4 = assay: MTT assay, cytotoxicity of metabolites, KPL4; type: cell-based; settings: KPL4, 96 h, 96 h incubation
Experimental: (§1) The cells were cultivated according to the standard method using the growth media listed under C-1. The test is carried out by detaching the cells with a solution of Accutase in PBS (Biochrom AG #L2143), pelleting, resuspending in culture medium, counting and sowing into a 96-well culture plate with white bottom (Costar #3610) (NCI H292: 2500 cells/well in a total volume of 100 μl). The cells were then incubated in an incubator at 37° C. and 5% carbon dioxide. After 48 h, the medium was replaced. The metabolites in 10 μl of culture medium in concentrations from 10^−5M to 10^−13M were then pipetted to the cells (in triplicate), and the assay was then incubated in an incubator at 37° C. and 5% carbon dioxide. […] To this end, the MTT reagent was incubated with the cells for 4 h, followed by lysis of the cells overnight by addition of the detergent. The dye formed was detected at 570 nm (Infinite M1000 pro, Tecan). The measured data were used to calculate the IC50 of the growth inhibition using the DRC (dose response curve). The proliferation of cells which were not treated with test substance but were otherwise identically treated was defined as the 100% figure.

[1] = test system: NCI-H292: human mucoepidermoid lung carcinoma cells; assay: MTT assay, cytotoxicity of metabolites, NCI-H292; type: cell-based; settings: NCI-H292, 96 h, 96 h incubation
Experimental: NCI-H292: human mucoepidermoid lung carcinoma cells, ATCC-CRL-1848, standard medium: RPMI 1640 (Biochrom; #FG1215, stab. glutamine)+10% FCS (Biochrom; #S0415).
as §1

[2] = Flux assay for cell permeability using Caco-2 cells; settings: human, Caco-2
[3] = biological target: T1, motor domain of the human kinesin spindle protein KSP/Eg5; assay: Inhibition of the kinesin spindle protein, ATPase activity (malachite green); type: biochemical; settings: 10 nM KSP/Eg5 motor domain, microtubuli, ATP 500 μM, 2 h RT
Experimental: The motor domain of the human kinesin spindle protein KSP/Eg5 (tebu-bio/Cytoskeleton Inc, No. 027EG01-XL) was incubated in a concentration of 10 nM with microtubuli (bovine or porcine, tebu-bio/Cytoskeleton Inc) stabilized with 50 μg/ml taxol (Sigma No. T7191-5MG) for 5 min at RT in 15 mM PIPES, pH 6.8 (5 mM MgCl2 and 10 mM DTT, Sigma). […] Incubation was at RT for 2 h. ATPase activity was detected by detecting the inorganic phosphate formed using malachite green (Biomol). […] The positive controls used were monastrol (Sigma, M8515-1 mg) and ispinesib (AdooQ Bioscience A10486). The individual data of the dose-activity curve are eight-fold determinations. The IC50 values are means of two independent experiments.

[4] = biological target: T2, human B7H3 (RnDSystems, 2318-B3-050/CF); assay: ELISA; antibody captured on anti-human IgG Fc, antigen 37 ng/ml, anti-His HRP / Amplex Red
Experimental: TPP5706 was synthesized as described above. Binding of TPP5706 to human B7H3 and to human B7H2 and B7H4 was characterized using ELISAs. […] After washing once with PBS, 0.05% Tween, the plate was blocked with 100% Smart Block (Candor) for one hour at 37° C. The antibody to be tested (e.g. TPP5706 or one of its derivatives) was then attached to the plate (2 μg/ml IgG in PBS, 0.05% Tween, 10% Smart Block; 1 hour, room temperature). […] After washing three times, the plate was incubated with Amplex Red for 30 minutes and then read.

Molecule | IC50 (KPL4) [nM] | IC50 [1] [nM] | other results
CC(C)(C)[C@H](c1cc(-c2cc(F)ccc2F)cn1Cc1ccccc1)N(CC[C@H](N)C(=O)NCCNC(=O)CNC(=O)CC(SC[C@H](N)C(=O)O)C(=O)O)C(=O)CO (stereo partly drawn) [Example M13, 4-[(2-{[2-({(2S)-2-Amino-4-[{(1R)-1-[1-benzyl-4-(2,5-difluorophenyl)-1H-pyrrol-2-yl]-2,2-dimethylpropyl}(glycoloyl)amino]butanoyl}amino)ethyl]amino}-2-oxoethyl)amino]-2-{[(2R)-2-amino-2-carboxyethyl]sulphanyl}-4-oxobutanoic acid/trifluoroacetic acid (1:1)] | 169 | – | –
CC(C)(C)C(c1cc(-c2cc(F)ccc2F)cn1Cc1ccccc1)N(CC[C@H](N)C(=O)NCCNC(=O)CN1C(=O)CC(SC[C@H](N)C(=O)O)C1=O)C(=O)CO.O=C(O)C(F)(F)F (stereo partly drawn) [Example M1, S-[1-(2-{[2-({(2S)-2-Amino-4-[{(1R)-1-[1-benzyl-4-(2,5-difluorophenyl)-1H-pyrrol-2-yl]-2,2-dimethylpropyl}(glycoloyl)amino]butanoyl}amino)ethyl]amino}-2-oxoethyl)-2,5-dioxopyrrolidin-3-yl]-L-cysteine/trifluoroacetic acid (1:1)] | 500 | 500 | Papp B→A at 2 h [2]: 0.78 ×10⁻⁶ cm/s
CC(C)(C)[C@H](c1cc(-c2cc(F)ccc2F)cn1Cc1ccccc1)N(CC[C@H](N)C(=O)NCCNC(=O)CSC[C@H](N)C(=O)O)C(=O)CO [Example M7, S-(2-{[2-({(2S)-2-Amino-4-[{(1R)-1-[1-benzyl-4-(2,5-difluorophenyl)-1H-pyrrol-2-yl]-2,2-dimethylpropyl}(glycoloyl)amino]butanoyl}amino)ethyl]amino}-2-oxoethyl)-L-cysteine/trifluoroacetic acid (1:1)] | 92.5 | – | –
CC(C)(C)[C@H](c1cc(-c2cc(F)ccc2F)cn1Cc1ccccc1)N(CC[C@H](N)C(=O)NCCC(=O)N[C@H](CCC(=O)O)C(=O)O)C(=O)CO [Example M24, N-{(2S)-2-Amino-4-[{(1R)-1-[1-benzyl-4-(2,5-difluorophenyl)-1H-pyrrol-2-yl]-2,2-dimethylpropyl}(glycoloyl)amino]butanoyl}-beta-alanyl-D-glutamic acid-trifluoroacetic acid (1:1)] | 500 | 167 | –
CC(C)(C)[C@H](c1cc(-c2cc(F)ccc2F)cn1Cc1ccccc1)N(CC[C@H](N)C(=O)NCCNC(=O)CNC(=O)C(CC(=O)O)SC[C@H](N)C(=O)O)C(=O)CO (stereo partly drawn) [Example M27, 4-[(2-{[2-({(2S)-2-Amino-4-[{(1R)-1-[1-benzyl-4-(2,5-difluorophenyl)-1H-pyrrol-2-yl]-2,2-dimethylpropyl}(glycoloyl)amino]butanoyl}amino)ethyl]amino}-2-oxoethyl)amino]-3-{[(2R)-2-amino-2-carboxyethyl]sulphanyl}-4-oxobutanoic acid-trifluoroacetic acid (1:1)] | – | 276 | –
CC(C)(C)[C@H](c1cc(-c2cc(F)ccc2F)cn1Cc1ccccc1)N(CCCN)C(=O)CSC[C@H](NC(=O)CCOCCOCCOCCOCCNC(=O)CNC(=O)C(CC(=O)O)SC[C@H](N)C(=O)O)C(=O)O (stereo partly drawn) [Example M21, (2R,24S,27R)-27-Amino-2-[({2-[(3-aminopropyl) {(1R)-1-[1-benzyl-4-(2,5-difluorophenyl)-1H-pyrrol-2-yl]-2,2-dimethylpropyl}amino]-2-oxoethyl}sulphanyl)methyl]-24-(carboxymethyl)-4,20,23-trioxo-7,10,13,16-tetraoxa-25-thia-3,19,22-triazaoctacosane-1,28-dioic acid/trifluoroacetic acid (1:2)] | – | – | IC50 [3]: 2.31 nM
CC(C)(C)[C@H](c1cc(-c2cc(F)ccc2F)cn1Cc1ccccc1)N(CC[C@H](N)C(=O)NCCNC(=O)CNC(=O)CC(SC[C@H](N)C(=O)O)C(=O)O)C(=O)CO (single isomer, unassigned) [Example M14] | 182 | – | –
CC(C)(C)[C@H](c1cc(-c2cc(F)ccc2F)cn1Cc1ccccc1)N(CC[C@H](N)C(=O)NCCC(=O)N[C@@H](CCC(=O)O)C(=O)O)C(=O)CO [Example M23, N-{(2S)-2-Amino-4-[{(1R)-1-[1-benzyl-4-(2,5-difluorophenyl)-1H-pyrrol-2-yl]-2,2-dimethylpropyl}(glycoloyl)amino]butanoyl}-beta-alanyl-L-glutamic acid-trifluoroacetic acid (1:1)] | 500 | 500 | –
CC(C)(C)[C@H](c1cc(-c2cc(F)ccc2F)cn1Cc1ccccc1)N(CCCN)C(=O)CO [Example M9, N-(3-Aminopropyl)-N-{(1R)-1-[1-benzyl-4-(2,5-difluorophenyl)-1H-pyrrol-2-yl]-2,2-dimethylpropyl}-2-hydroxyacetamide] | – | – | IC50 [3]: 1.07 nM
CC(C)(C)[C@H](c1cc(-c2cc(F)ccc2F)cn1Cc1ccccc1)N(CC[C@H](N)C(=O)NCCNC(=O)CNC(=O)CC(SC[C@H](N)C(=O)O)C(=O)O)C(=O)CO (mixture of isomers) [Example M26, 4-[(2-{[2-({(2S)-2-Amino-4-[{(1R)-1-[1-benzyl-4-(2,5-difluorophenyl)-1H-pyrrol-2-yl]-2,2-dimethylpropyl}(glycoloyl)amino]butanoyl}amino)ethyl]amino}-2-oxoethyl)amino]-2-{[(2R)-2-amino-2-carboxyethyl]sulphanyl}-4-oxobutanoic acid-trifluoroacetic acid (1:1)] | – | 63.8 | Papp B→A at 2 h [2]: 1.3 ×10⁻⁶ cm/s
CC(C)(C)[C@H](c1cc(-c2cc(F)ccc2F)cn1Cc1ccccc1)N(CC[C@H](N)C(=O)NCCNC(=O)CNC(=O)C(CC(=O)O)SC[C@H](N)C(=O)O)C(=O)CO (single isomer, unassigned) [Example M15] | 169 | 133 | –
CC(C)(C)[C@H](c1cc(-c2cc(F)ccc2F)cn1Cc1ccccc1)N(CC[C@H](N)C(=O)NCCOCCN1C(=O)CC(SC[C@H](N)C(=O)O)C1=O)C(=O)CO (stereo partly drawn) [Example M4, S-(1-{2-[2-({(2S)-2-Amino-4-[{(1R)-1-[1-benzyl-4-(2,5-difluorophenyl)-1H-pyrrol-2-yl]-2,2-dimethylpropyl}(glycoloyl)amino]butanoyl}amino)ethoxy]ethyl}-2,5-dioxopyrrolidin-3-yl)-L-cysteine/trifluoroacetic acid (1:1)] | 176 | – | –
TPP-3803 (antibody, human IgG1, kappa, V domains shown, also called anti-B7H3 AK1A) VH: QVKLQQSGAELVKPGASVKLSCKASGYTFTNYDINWVRQRPEQGLEWIGWIFPGDGSTQYNEKFKGKATLTTDTSSSTAYMQLSRLTSEDSAVYFCARQTTATWFAYWGQGTTVTVSS VL: DIELTQSPTTLSVTPGDRVSLSCRASQSISDYLHWYQQKSHESPRLLIKYASQSISGIPSRFSGSGSGSDFTLSINSVEPEDVGVYYCQNGHSFPLTFGAGTKLELKR | – | – | Quotient signal (B7)/signal (buffer) [4]: 51

— US20180185510A1, “ANTIBODY DRUG CONJUGATES OF KINESIN SPINDEL PROTEIN (KSP) INHIBITORS WITH ANTI-B7H3-ANTIBODIES” (BAYER PHARMA AKTIENGESELLSCHAFT, priority 2015, published 2018)
